Each block holds one compound with its values, some of them ahead of it.
Columns and labels:
[1] = test system: DSS mouse model of ulcerative colitis; assay: DSS mouse model of ulcerative colitis: Disease Activity Index, plasma and colon cytokines, colon histopathology; type: in vivo, mice; conditions: for amount of crypt damage (colon histopathology) / colon IL-15 level increased by DSS / colon KC level increased by DSS / colon RANTES level increased by DSS / degree of inflammatory infiltrate (colon histopathology) / layer to which the infiltration extended (extent of infiltration, colon histopathology): colon collected day 7; for improvement (reduction) in the Disease Activity Index (DAI): mice given 2.5% DSS in drinking water for 6 days, NTX 1170 100 mg/kg QD PO, infliximab 5 mg/kg QD IP, tofacitinib 5 mg/kg BID PO
Description: (§1) Body weights, stool consistency and the presence of blood in the stool were measured over the 6 days and comprised the Disease Activity Index (DAI). On day 7 the study was terminated, and the colon and plasma were collected for cytokine measurements, histology evaluation and for pharmacokinetic (PK) analysis.

[2] = Pharmacokinetic (PK) analysis of terminal plasma and colon samples in DSS mice; type: in vivo; conditions: 100 mg/kg QD PO
Description: as §1

[3] = plasma collected day 7, 2.5% DSS 6 days

Kp ([2]; mouse, colon and plasma, terminal samples, read-out: colon/plasma ratio): > 3500
level of compound in the colon ([2]; terminal colon sample): high levels
level of compound in the plasma ([2]; terminal plasma sample): very low levels
Compound: Cc1cccc(C)c1NC(=O)C[N+]1(Cc2ccccc2)CCCCC1.[Br-] [NTX-1170]
amount of crypt damage (colon histopathology) ([1]; 2.5% DSS 6 days): significantly reduced
colon IL-15 level increased by DSS ([1]; 2.5% DSS 6 days): significantly reduced
colon KC level increased by DSS ([1]; 2.5% DSS 6 days): significantly reduced
colon RANTES level increased by DSS ([1]; 2.5% DSS 6 days): significantly reduced
degree of inflammatory infiltrate (colon histopathology) ([1]; 2.5% DSS 6 days): significantly reduced
layer to which the infiltration extended (extent of infiltration, colon histopathology) ([1]; 2.5% DSS 6 days): significantly reduced
improvement (reduction) in the Disease Activity Index (DAI) [1]: 60%
plasma G-CSF level upregulated by DSS [1, 3]: significantly reduced
plasma IP-10 level upregulated by DSS [1, 3]: significantly reduced
plasma MIG level upregulated by DSS [1, 3]: significantly reduced
plasma Mip-1β level upregulated by DSS [1, 3]: significantly reduced
plasma TNF-α level upregulated by DSS [1, 3]: significantly reduced

Compound: C[C@@H]1CCN(C(=O)CC#N)C[C@@H]1N(C)c1ncnc2[nH]ccc12 [tofacitinib]
colon IL-15 level increased by DSS ([1]; 2.5% DSS 6 days): neither tofacitinib nor infliximab significantly reduced
colon KC level increased by DSS ([1]; 2.5% DSS 6 days): neither tofacitinib nor infliximab significantly reduced
colon RANTES level increased by DSS ([1]; 2.5% DSS 6 days): neither tofacitinib nor infliximab significantly reduced
layer to which the infiltration extended (extent of infiltration, colon histopathology) ([1]; 2.5% DSS 6 days): reduced
improvement (reduction) in the Disease Activity Index (DAI) [1]: 38%
plasma G-CSF level upregulated by DSS [1, 3]: significantly reduced
plasma MIG level upregulated by DSS [1, 3]: significantly reduced
plasma Mip-1β level upregulated by DSS [1, 3]: significantly reduced
plasma TNF-α level upregulated by DSS [1, 3]: significantly reduced

Compound: infliximab
amount of crypt damage (colon histopathology) ([1]; 2.5% DSS 6 days): no significant effect
colon IL-15 level increased by DSS ([1]; 2.5% DSS 6 days): neither tofacitinib nor infliximab significantly reduced
colon KC level increased by DSS ([1]; 2.5% DSS 6 days): neither tofacitinib nor infliximab significantly reduced
colon RANTES level increased by DSS ([1]; 2.5% DSS 6 days): neither tofacitinib nor infliximab significantly reduced
degree of inflammatory infiltrate (colon histopathology) ([1]; 2.5% DSS 6 days): no significant effect
layer to which the infiltration extended (extent of infiltration, colon histopathology) ([1]; 2.5% DSS 6 days): no significant effect
plasma G-CSF level upregulated by DSS [1, 3]: reduced
plasma Mip-1β level upregulated by DSS [1, 3]: reduced
plasma TNF-α level upregulated by DSS [1, 3]: reduced
